Laboratory results as given in article PMC7211195 (Investigational New Drugs, 2019).
Where “and” joins values, the source holds several entries; their conditions need not be identical. Identical values can stand only once. Like-named read-outs stand apart in the source and are kept apart here.

Test: Lapatinib pharmacokinetics and uptake in rat brain tissue (BT);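 as to BT corr (BT homogenate corrected), single rat: brain concentration corrected for residual brain blood by the Fridén method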;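 as to BT corr (BT homogenate), single rat: brain concentration corrected for residual brain blood by the Fridén method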
Assay type: in vivo, rats
Experimental: This study was conducted on rats, which are a promising model to predict P-gp-based drug-drug interactions at the human BBB [15]. The animals were allowed to acclimate for one week before the beginning of the experiments. Adult male Wistar-strain rats (weight 470–525 g) were used in the study. The animals were maintained under standard breeding conditions with a 12/12 h light-dark cycle (lights on at 6.00 a.m., lights off at 6.00 p.m.) at constant room temperature (23 ± 2 °C), relative humidity (55 ± 10%) and ad libitum access to food and water. The experimental protocol for this study was reviewed and approved by the Local Ethics Committee. To obtain consistent data, the study was based on the required minimum number of animals and observation time. […] Three rats were used at each time point (n = 3). In total, the research was conducted on 66 animals (n = 33 in the experimental group and n = 33 in the control group).
Elacridar was freshly dissolved in a vehicle at an initial concentration of 20 mg/mL. […] A volume of 80 μL of blood was collected from each rat by cutting off a piece of its tail. The blood samples were collected into heparinized test tubes at the following time points: […], and they were immediately centrifuged at 2880 g for 10 min at 4 °C. The anaesthetized rats (anaesthetized by intramuscular administration of 50 mg/kg ketamine and 10 mg/kg xylazine) were prepared for cisterna magna puncture. The hair over the puncture was removed and the skin was disinfected with alcohol. The animals were placed in a recumbent position with an elevated rear part of the body. The animals’ heads were slightly flexed and immobilized with the operator’s left hand. The space between the occiput rostrally and the atlas (C1) of the spinal column caudally was gently palpated with the left thumb. A 0.7 × 20 G needle with polyethylene tubing (Terumo Poland, Warsaw, Poland) was gently inserted at an approximate angle of 80–90° through the skin with the operator’s right hand into the midsagittal region. The moment that dura mater perforation was perceptible, a small amount of CSF was found in the needle tubing. To sample additional CSF, a 1 mL insulin syringe (Becton Dickinson, Warsaw, Poland) was used to collect 80–120 μL of CSF by very gentle aspiration. Only clear CSF was collected for further analysis. […] The animals’ brains were immediately dissected, washed in 0.9% NaCl and divided along the longitudinal axis. One of the brain hemispheres was again rinsed three times with 5 mL of 0.9% NaCl, weighed and homogenized with 0.9% NaCl (4 mL per 1 g of BT) in an Ultra-Turrax homogenizer (Witko, Łódź, Poland). The homogenate was then centrifuged at 4500 g for 10 min. All samples of the rat BP, CSF, and BT homogenate supernatant were stored at −80 °C until analysis.
The chromatographic analysis was conducted using a 1260 Infinity system (Agilent Technologies, Santa Clara, USA) equipped with a Kinetex® C18 column (50 × 4.6 mm, 2.6 μm, Phenomenex, Torrance, USA), which was maintained at 35 °C. The mobile phase consisted of 0.1% formic acid (v/v) in water with 5 mM ammonium formate (solvent A) and acetonitrile with 10% phase A (v/v, solvent B). The analyte and internal standard (IS, erlotinib) were eluted using a gradient run of 10 min as follows: 95% A at 0–2 min; 95%–5% A at 2–4 min; 5% A at 4–5 min; 5%–95% A at 5–6 min; 95% A at 6–10 min. The flow rate and injection volume were set at 0.7 mL/min and 10 μL, respectively. The needle was washed for 30 s in a mixture of acetonitrile, methanol, isopropanol, water, and formic acid (50:20:15:15:0.25, v/v/v/v/v).

[1] = male, Wistar, rat, brain tissue homogenate, corrected for residual blood, po, 100 mg/kg, lapatinib p.o. 100 mg/kg alone, read-out: BT corr (BT homogenate corrected), S
[2] = male, Wistar, rat, brain tissue homogenate, corrected for residual blood, po, 100 mg/kg, lapatinib p.o. 100 mg/kg alone, read-out: BT corr (BT homogenate corrected), single rat
[3] = male, Wistar, rat, brain tissue homogenate, oral, lapatinib 100 mg/kg + elacridar, read-out: BT corr (BT homogenate), S
[4] = male, Wistar, rat, brain tissue homogenate, oral, lapatinib 100 mg/kg + elacridar, read-out: BT corr (BT homogenate), single rat

In the case of `CS(=O)(=O)CCNCc1ccc(-c2ccc3ncnc(Nc4ccc(OCc5cccc(F)c5)c(Cl)c4)c3c2)o1` [lapatinib, N-{3-Chloro-4-[(3-fluorobenzyl)oxy]phenyl}-6-[5-({[2-(methylsulfonyl)ethyl]amino}methyl)-2-furyl]-4-quinazolinamine], the “BT corr (BT homogenate corrected), single rat” value (“BT corr” below) (lapatinib p.o. 100 mg/kg alone, 1 h, 100 mg/kg) was 62.82 ng/mL, the “BT corr” value (lapatinib p.o. 100 mg/kg alone, 1 h, listed as Lapatinib, 100 mg/kg) was 62.82 ng/mL and the “BT corr” value (lapatinib p.o. 100 mg/kg alone, 4 h, 100 mg/kg) was 135.24 ng/mL. The “BT corr” value (lapatinib p.o. 100 mg/kg alone, 4 h, listed as Lapatinib, 100 mg/kg) was 135.24 ng/mL, the “BT corr” value (lapatinib p.o. 100 mg/kg alone, 6 h, 100 mg/kg) was 116.18 ng/mL and 47.54 ng/mL and the “BT corr” value (lapatinib p.o. 100 mg/kg alone, 6 h, listed as Lapatinib, 100 mg/kg) was 116.18 ng/mL and 47.54 ng/mL. The “BT corr” value (lapatinib p.o. 100 mg/kg alone, 8 h, 100 mg/kg) was 44.94 ng/mL, the “BT corr” value (lapatinib p.o. 100 mg/kg alone, 8 h, listed as Lapatinib, 100 mg/kg) was 44.94 ng/mL and the “BT corr” value (lapatinib p.o. 100 mg/kg alone, 12 h, 100 mg/kg) was 10.91 ng/mL. The “BT corr” value (lapatinib p.o. 100 mg/kg alone, 12 h, listed as Lapatinib, 100 mg/kg) was 10.91 ng/mL, the Kp (male, Wistar, rat, brain tissue (homogenate supernatant), po, 100 mg/kg, read-out: Kp (tissue-to-plasma partition coefficient, AUC0-∞-tissue/AUC0-∞-plasma)) was 0.036 and the concentration at 4 h (male, Wistar, rat, brain tissue homogenate, corrected for residual blood, oral, lapatinib 100 mg/kg + elacridar, 4 h, read-out: BT corr (BT homogenate), single rat) was 78.2 ng/mL. For the same compound, the concentration at 6 h (male, Wistar, rat, brain tissue homogenate, corrected for residual blood, oral, lapatinib 100 mg/kg + elacridar, 6 h, read-out: BT corr (BT homogenate), single rat) was 87.3 ng/mL, the concentration at 8 h (male, Wistar, rat, brain tissue homogenate, corrected for residual blood, oral, lapatinib 100 mg/kg + elacridar, 8 h, read-out: BT corr (BT homogenate), single rat) was 91.5 ng/mL and the concentration at 12 h (male, Wistar, rat, brain tissue homogenate, corrected for residual blood, oral, lapatinib 100 mg/kg + elacridar, 12 h, read-out: BT corr (BT homogenate), single rat) was 63.6 ng/mL. The concentration at 24 h (male, Wistar, rat, brain tissue homogenate, corrected for residual blood, oral, lapatinib 100 mg/kg + elacridar, 24 h, read-out: BT corr (BT homogenate), single rat) was 52.7 ng/mL, the concentration at 0.25 h [1] was 27.9 ng/mL and the concentration at 0.25 h [2] was 22.5 ng/mL. The concentration at 0.5 h [1] was 31.5 ng/mL, the concentration at 0.5 h [2] was 24 ng/mL and the concentration at 1 h (male, Wistar, rat, brain tissue homogenate, corrected for residual blood, po, 100 mg/kg, lapatinib p.o. 100 mg/kg alone, 1 h, read-out: BT corr (BT homogenate corrected), S) was 55.5 ng/mL. The concentration at 1 h (male, Wistar, rat, brain tissue homogenate, corrected for residual blood, po, 100 mg/kg, lapatinib p.o. 100 mg/kg alone, 1 h, read-out: BT corr (BT homogenate corrected), single rat) was 48.1 ng/mL, the concentration at 2 h [1] was 41.4 ng/mL and the concentration at 2 h [2] was 30.1 ng/mL. It also gave a concentration at 3 h [1] of 111 ng/mL, a concentration at 3 h [2] of 139 ng/mL and a concentration at 4 h (male, Wistar, rat, brain tissue homogenate, corrected for residual blood, po, 100 mg/kg, lapatinib p.o. 100 mg/kg alone, 4 h, read-out: BT corr (BT homogenate corrected), S) of 115 ng/mL. For the same compound, the concentration at 4 h (male, Wistar, rat, brain tissue homogenate, corrected for residual blood, po, 100 mg/kg, lapatinib p.o. 100 mg/kg alone, 4 h, read-out: BT corr (BT homogenate corrected), single rat) was 94.2 ng/mL, the concentration at 6 h (male, Wistar, rat, brain tissue homogenate, corrected for residual blood, po, 100 mg/kg, lapatinib p.o. 100 mg/kg alone, 6 h, read-out: BT corr (BT homogenate corrected), S) was 81.9 ng/mL and the concentration at 8 h (male, Wistar, rat, brain tissue homogenate, corrected for residual blood, po, 100 mg/kg, lapatinib p.o. 100 mg/kg alone, 8 h, read-out: BT corr (BT homogenate corrected), S) was 66.2 ng/mL. The concentration at 8 h (male, Wistar, rat, brain tissue homogenate, corrected for residual blood, po, 100 mg/kg, lapatinib p.o. 100 mg/kg alone, 8 h, read-out: BT corr (BT homogenate corrected), single rat) was 87.5 ng/mL, the concentration at 12 h (male, Wistar, rat, brain tissue homogenate, corrected for residual blood, po, 100 mg/kg, lapatinib p.o. 100 mg/kg alone, 12 h, read-out: BT corr (BT homogenate corrected), S) was 44.5 ng/mL and the concentration at 0.25 h [3] was 33.1 ng/mL. For the same compound, the concentration at 0.25 h [4] was 30.7 ng/mL, the concentration at 0.5 h [3] was 43.6 ng/mL and the concentration at 0.5 h [4] was 45.2 ng/mL. The concentration at 1 h (male, Wistar, rat, brain tissue homogenate, oral, lapatinib 100 mg/kg + elacridar, 1 h, read-out: BT corr (BT homogenate), S) was 79.1 ng/mL and the concentration at 1 h (male, Wistar, rat, brain tissue homogenate, oral, lapatinib 100 mg/kg + elacridar, 1 h, read-out: BT corr (BT homogenate), single rat) was 74.9 ng/mL.
